In US11739098B2 (BRISTOL-MYERS SQUIBB COMPANY, priority 2017, dated 2023):

What was measured:
Format in all cases: cell-based
human TLR9 = target: T1, human TLR9 (Homo sapiens, UniProt Q9NR96); test: TLR9 inhibition reporter assay (HEK-Blue cells, SEAP reporter, ODN2006 stimulation); conditions: HEK-Blue cells overexpressing human TLR9, SEAP reporter, ODN2006 5 nM
T1 construct: host or cells: HEK-Blue cells (HEK293-derived reporter line)
T1 sequence (Q9NR96 26-1032): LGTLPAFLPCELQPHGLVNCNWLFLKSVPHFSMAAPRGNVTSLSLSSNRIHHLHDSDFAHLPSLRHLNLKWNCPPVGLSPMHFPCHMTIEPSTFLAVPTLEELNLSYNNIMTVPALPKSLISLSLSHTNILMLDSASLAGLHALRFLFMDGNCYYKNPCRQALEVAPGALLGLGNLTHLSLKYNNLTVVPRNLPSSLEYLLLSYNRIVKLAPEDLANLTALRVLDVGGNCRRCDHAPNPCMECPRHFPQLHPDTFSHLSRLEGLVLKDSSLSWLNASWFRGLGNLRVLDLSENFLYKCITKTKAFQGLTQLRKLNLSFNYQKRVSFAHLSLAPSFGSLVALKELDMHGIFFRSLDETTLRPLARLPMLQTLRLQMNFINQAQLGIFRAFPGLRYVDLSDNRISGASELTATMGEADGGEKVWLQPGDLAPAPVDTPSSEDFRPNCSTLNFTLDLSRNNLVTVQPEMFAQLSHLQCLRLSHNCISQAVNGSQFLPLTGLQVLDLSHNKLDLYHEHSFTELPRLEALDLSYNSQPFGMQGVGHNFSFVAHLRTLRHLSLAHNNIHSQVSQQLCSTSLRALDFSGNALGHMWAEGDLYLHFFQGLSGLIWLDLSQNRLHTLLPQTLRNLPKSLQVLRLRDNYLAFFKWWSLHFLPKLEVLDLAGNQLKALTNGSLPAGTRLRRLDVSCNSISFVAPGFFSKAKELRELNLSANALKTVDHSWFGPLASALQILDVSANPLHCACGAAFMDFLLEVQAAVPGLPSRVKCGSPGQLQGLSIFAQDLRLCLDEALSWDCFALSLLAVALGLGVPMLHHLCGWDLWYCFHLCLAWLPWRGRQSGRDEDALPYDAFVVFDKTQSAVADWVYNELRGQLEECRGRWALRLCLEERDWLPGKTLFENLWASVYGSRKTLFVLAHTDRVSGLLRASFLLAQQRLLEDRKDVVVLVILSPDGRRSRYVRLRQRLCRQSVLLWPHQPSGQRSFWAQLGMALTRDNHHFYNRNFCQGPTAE
Summary of the method: (§1)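 Percent inhibition of agonist-induced SEAP secretion in HEK-Blue cells after 22 h at 37 °C. Stimuli: 7.5 μM gardiquimod, 15.9 μM R848, 5 nM ODN2006 for TLR7, TLR8 and TLR9, added after 30 min compound exposure over a 0.05 nM–50 μM range.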

human TLR7 = target: T2, human TLR7 (Homo sapiens, UniProt Q9NYK1); test: TLR7 inhibition reporter assay (HEK-Blue cells, SEAP reporter, gardiquimod stimulation); conditions: HEK-Blue cells overexpressing human TLR7, SEAP reporter, gardiquimod 7.5 μM
T2 construct: host or cells: HEK-Blue cells (HEK293-derived reporter line)
T2 sequence (Q9NYK1 27-1049): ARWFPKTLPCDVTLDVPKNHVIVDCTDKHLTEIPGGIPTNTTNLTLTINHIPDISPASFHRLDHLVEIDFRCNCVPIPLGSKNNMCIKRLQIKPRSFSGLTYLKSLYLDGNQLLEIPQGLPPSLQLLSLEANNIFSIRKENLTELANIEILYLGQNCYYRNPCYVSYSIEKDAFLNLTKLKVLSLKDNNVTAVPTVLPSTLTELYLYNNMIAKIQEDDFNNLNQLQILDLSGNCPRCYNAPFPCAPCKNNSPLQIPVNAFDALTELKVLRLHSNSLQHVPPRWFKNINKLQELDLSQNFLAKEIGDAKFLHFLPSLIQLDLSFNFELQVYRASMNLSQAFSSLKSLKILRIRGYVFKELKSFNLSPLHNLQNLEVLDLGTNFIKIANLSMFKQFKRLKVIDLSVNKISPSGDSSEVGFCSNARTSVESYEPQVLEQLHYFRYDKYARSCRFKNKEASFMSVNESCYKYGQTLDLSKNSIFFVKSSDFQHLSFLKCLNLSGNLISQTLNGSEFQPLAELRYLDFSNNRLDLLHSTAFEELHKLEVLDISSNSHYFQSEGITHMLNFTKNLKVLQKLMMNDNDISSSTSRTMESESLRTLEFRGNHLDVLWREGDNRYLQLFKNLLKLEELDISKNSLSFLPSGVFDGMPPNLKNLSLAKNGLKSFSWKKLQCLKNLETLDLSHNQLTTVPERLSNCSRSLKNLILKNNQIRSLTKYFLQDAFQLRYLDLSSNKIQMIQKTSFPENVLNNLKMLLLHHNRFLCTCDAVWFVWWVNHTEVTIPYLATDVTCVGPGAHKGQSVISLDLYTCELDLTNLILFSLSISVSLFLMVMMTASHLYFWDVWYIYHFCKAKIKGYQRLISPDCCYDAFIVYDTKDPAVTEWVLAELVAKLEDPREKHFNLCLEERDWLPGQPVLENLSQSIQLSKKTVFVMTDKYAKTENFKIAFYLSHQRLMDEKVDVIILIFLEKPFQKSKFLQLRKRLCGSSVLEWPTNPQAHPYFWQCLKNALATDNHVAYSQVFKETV
Summary of the method: as §1

human TLR8 = target: T3, human TLR8 (Homo sapiens, UniProt Q9NR97); test: TLR8 inhibition reporter assay (HEK-Blue cells, SEAP reporter, R848 stimulation); conditions: HEK-Blue cells overexpressing human TLR8, SEAP reporter, R848 15.9 μM
T3 construct: host or cells: HEK-Blue cells (HEK293-derived reporter line)
T3 sequence (Q9NR97 27-1041): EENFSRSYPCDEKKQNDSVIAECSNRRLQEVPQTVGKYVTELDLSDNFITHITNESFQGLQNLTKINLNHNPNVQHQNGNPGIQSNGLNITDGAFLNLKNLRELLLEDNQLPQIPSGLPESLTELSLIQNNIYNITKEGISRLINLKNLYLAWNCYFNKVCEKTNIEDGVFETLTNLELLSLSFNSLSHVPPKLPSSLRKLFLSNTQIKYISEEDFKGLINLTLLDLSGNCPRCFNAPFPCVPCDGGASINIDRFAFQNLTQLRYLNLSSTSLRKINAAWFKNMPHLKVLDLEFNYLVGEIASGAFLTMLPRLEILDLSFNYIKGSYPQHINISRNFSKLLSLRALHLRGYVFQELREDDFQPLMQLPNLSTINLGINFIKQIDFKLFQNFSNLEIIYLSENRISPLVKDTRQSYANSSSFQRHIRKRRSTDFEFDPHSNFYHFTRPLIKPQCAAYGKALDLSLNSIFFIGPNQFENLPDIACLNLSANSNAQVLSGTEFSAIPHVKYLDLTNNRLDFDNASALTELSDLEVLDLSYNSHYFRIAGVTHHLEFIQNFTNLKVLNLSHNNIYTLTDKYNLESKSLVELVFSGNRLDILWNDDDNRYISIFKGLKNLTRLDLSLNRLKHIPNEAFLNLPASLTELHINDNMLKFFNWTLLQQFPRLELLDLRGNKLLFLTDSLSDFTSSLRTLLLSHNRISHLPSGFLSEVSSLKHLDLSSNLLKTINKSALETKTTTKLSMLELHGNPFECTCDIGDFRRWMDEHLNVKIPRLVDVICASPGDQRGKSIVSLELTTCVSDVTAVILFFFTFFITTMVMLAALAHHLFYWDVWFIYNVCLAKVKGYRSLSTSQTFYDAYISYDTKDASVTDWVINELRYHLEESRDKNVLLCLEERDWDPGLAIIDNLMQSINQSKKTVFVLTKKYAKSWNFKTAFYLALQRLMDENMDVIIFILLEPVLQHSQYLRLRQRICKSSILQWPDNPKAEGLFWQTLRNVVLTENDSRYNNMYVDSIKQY
Summary of the method: as §1

| SMILES | IC50 (human TLR9) [nM] | IC50 (human TLR7) [nM] | IC50 (human TLR8) [nM] |
| --- | --- | --- | --- |
| CC(C)c1c(-c2ccc3nccn3c2)[nH]c2ccc(C3CCN(CC(=O)NCC(F)(F)F)CC3)cc12 [Example 401, 2-(4-(2-(imidazo[1,2-a]pyridin-6-yl)-3-isopropyl-1H-indol-5-yl)piperidin-1-yl)-N-(2,2,2-trifluoroethyl)acetamide] | 1000 to 50000 | 100 to 1000 | 100 to 1000 |
| CC(C)c1c(-c2ccn3ncnc3c2)[nH]c2ccc(C3CCNCC3)cc12 [Example 197, 7-(3-isopropyl-5-(piperidin-4-yl)-1H-indol-2-yl)-[1,2,4]triazolo[1,5-a]pyridine] | 1000 to 50000 | < 100 | < 100 |
| COc1cc(-c2[nH]c3ccc(C4CCN(C(=O)CN(C)C)CC4)cc3c2C(C)C)cc2nc(C)cn12 [Example 541, 2-(dimethylamino)-1-(4-(3-isopropyl-2-(5-methoxy-2-methylimidazo[1,2-a]pyridin-7-yl)-1H-indol-5-yl)piperidin-1-yl)ethan-1-one] | 100 to 1000 | 100 to 1000 | 100 to 1000 |
| CCc1c(-c2ccc3nncn3n2)[nH]c2ccc(C3CCNCC3)cc12 [Example 184, 6-(3-ethyl-5-(piperidin-4-yl)-1H-indol-2-yl)-[1,2,4] triazolo[4,3-b]pyridazine] | 100 to 1000 | 100 to 1000 | 100 to 1000 |
| CCc1c(C)c(-c2[nH]c3ccc(C4CCNCC4)cc3c2C(C)C)cn2ccnc12 [Example 272, 8-ethyl-6-(3-isopropyl-5-(piperidin-4-yl)-1H-5 indol-2-yl)-7-methylimidazo[1,2-a]pyridine] | 100 to 1000 | < 100 | < 100 |
| Cc1cc(-c2[nH]c3ccc(C4CCNCC4)cc3c2C(C)C)cn2nncc12 [Example 70, 6-(3-isopropyl-5-(piperidin-4-yl)-1H-indol-2-yl)-4-methyl-[1,2,3]triazolo[1,5-a]pyridine] | 1000 to 50000 | 100 to 1000 | 100 to 1000 |
| CNC(=O)CN1CCC(c2ccc3[nH]c(-c4cc(C)c5nc(C)c(C)n5c4)c(C(C)C)c3c2)CC1 [Example 429, 2-(4-(3-isopropyl-2-(2,3,8-trimethylimidazo[1,2-a]pyridin-6-yl)-1H-indol-5-yl)piperidin-1-yl)-N-methylacetamide] | 100 to 1000 | < 100 | 100 to 1000 |
| CC(C)c1c(-c2ccnc3[nH]ncc23)[nH]c2ccc(C3CCN(C(=O)CN(C)C)CC3)cc12 [Example 449, 2-(dimethylamino)-1-(4-(3-isopropyl-2-(1H-pyrazolo[3,4-b]pyridin-4-yl)-1H-indol-5-yl)piperidin-1-yl)ethanone] | 1000 to 50000 | < 100 | < 100 |
| Cc1cc(-c2[nH]c3ccc(C4CCN(C(=O)CCN5CCCCC5)CC4)cc3c2C(C)C)cn2nnnc12 [Example 629, 1-(4-(3-isopropyl-2-(8-methyltetrazolo[1,5-a]pyridin-6-yl)-1H-indol-5-yl)piperidin-1-yl)-3-(piperidin-1-yl)propan-1-one] | 1000 to 50000 | < 100 | < 100 |
| Cc1c(-c2ccnc3[nH]cc(O)c23)[nH]c2ccc(C3CCNCC3)cc12 [Example 212, 4-(3-methyl-5-(piperidin-4-yl)-1H-indol-2-yl)-1H-pyrrolo[2,3-b]pyridin-3-ol] | 1000 to 50000 | 1000 to 50000 | 1000 to 50000 |
| Cc1cc(-c2[nH]c3ccc(C4CCN(C5COC5)CC4)cc3c2C(C)C)cn2nnnc12 [Example 741, 6-(3-isopropyl-5-(1-(oxetan-3-yl)piperidin-4-yl)-1H-indol-2-yl)-8-methyltetrazolo[1,5-a]pyridine] | 1000 to 50000 | < 100 | < 100 |
| CNCC(=O)N1CCC(c2ccc3[nH]c(-c4cc(C)c5nccn5c4)c(C(C)C)c3c2)CC1 [Example 557, 1-(4-(3-isopropyl-2-(8-methylimidazo[1,2-a]pyridin-6-yl)-1H-indol-5-yl)piperidin-1-yl)-2-(methylamino)ethan-1-one] | 100 to 1000 | < 100 | < 100 |
| COc1cc(-c2[nH]c3ccc(C4CCN(CC#N)CC4)cc3c2C(C)C)cn2ccnc12 [Example 950, 2-(4-(3-isopropyl-2-(8-methoxyimidazo[1,2-a]pyridin-6-yl)-1H-indol-5-yl)piperidin-1-yl)acetonitrile] | 100 to 1000 | < 100 | < 100 |
| Cc1cc(-c2[nH]c3ccc(C4CCN(C5COC5)CC4)cc3c2C(C)C)cc2cncn12 [Example 724, 7-(3-isopropyl-5-(1-(oxetan-3-yl)piperidin-4-yl)-1H-indol-2-yl)-5-methylimidazo[1,5-a]pyridine] | 1000 to 50000 | 100 to 1000 | 100 to 1000 |
| CC(C)c1c(-c2cnc3ccnn3c2)[nH]c2ccc(C3CCN(CC(C)(C)O)CC3)cc12 [Example 759, 1-(4-(3-isopropyl-2-(pyrazolo[1,5-a]pyrimidin-6-yl)-1H-indol-5-yl)piperidin-1-yl)-2-methylpropan-2-ol] | 1000 to 50000 | 100 to 1000 | 1000 to 50000 |
